The assay addresses T1, KRAS 4B G12C protein (Homo sapiens, UniProt P01116, G12C).
T1 construct: This protein contained 188 amino acids in total, including an N-terminal 6-Histidine tag; made in house; host or cells: E. coli BL21
As to the kind of experiment: In vitro covalent adduct formation (CAF) assay by LC-MS. The format is binding. The settings on record: compound 10 μM, protein 5 μM, 22° C., percentage of protein bound by the compound. An outline of the steps: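 Recombinant His-TEV-tagged KRAS 4B G12C (residues 1-169, E. coli) at 5 μM in Tris-buffered saline pH 7.4 was incubated with 10 μM compound (4% DMSO) at 22° C. for one hour, sampling over time. Intact-mass LC-MS free:adduct ratios gave % protein bound; duplicates.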

As for `C=CC(=O)N1CCN(c2nc(OC[C@@H]3CCCN3C)nc3c2CN(Cc2ccccc2CC(C)C)C3)C[C@@H]1CC#N` [1-191], the “CAF (10 minutes/60 minutes) at 10 micromolar: 10 minutes” value (from here on “CAF … at 10 micromolar: 10 minutes”) is 52% and the “CAF (10 minutes/60 minutes) at 10 micromolar: 60 minutes” value (“CAF … at 10 micromolar: 60 minutes” for short) came out at 73%.
The corresponding values for `C=CC(=O)N1C2CC(=O)CC1CN(c1nc(O[C@@H]3CN(C)C[C@H]3OC)nc3c1CN(C1CCc4ccccc41)C3)C2` (stereo partly shown) [1-232] are 0%/ 0% and 0%/ 0%.
For `C=CC(=O)N1CCN(c2nc(OC[C@@H]3CCCN3C)nc3c2CN(C2CC(C)(C)c4ccc(OC)cc42)C3)C[C@@H]1CC#N` (stereo partly shown) [1-186], the “CAF … at 10 micromolar: 10 minutes” value was found to be 14% and the “CAF … at 10 micromolar: 60 minutes” value is given as 36%.
The corresponding values for `C=CC(=O)N1CCN(c2nc(OC[C@@H]3CCCN3C)nc3c2CN(C2CCc4ccccc42)C3)C[C@@H]1CCC#N` (stereo partly shown) [1-212] are 0% and 5%.
Regarding `C=CC(=O)N1CCN(c2nc(OC[C@@H]3CCCN3C)nc3c2CN(Cc2cccc4cccc(C)c24)C3)C[C@@H]1CC#N` [1-16], the “CAF … at 10 micromolar: 10 minutes” value was determined as 40% and the “CAF … at 10 micromolar: 60 minutes” value amounted to 86%.
The corresponding values for `C=CC(=O)N1CCN(c2nc(OC[C@@H]3CCCN3C)nc3c2CN(Cc2c(Cl)cccc2OC(F)F)C3)[C@H](C)C1` [1-91] are 0%/ 0% and 0%/ 0%.
As to `C=CC(=O)N1CC2COCC(C1)N2c1nc(OC[C@@H]2CCCN2C)nc2c1CN(Cc1cc(O)ccc1Cl)C2` [1-90], the “CAF … at 10 micromolar: 10 minutes” value is recorded as 2% and the “CAF … at 10 micromolar: 60 minutes” value amounted to 12%.
The like results for `C=CC(=O)N1CCN(c2nc(OC[C@@H]3CCCN3C)nc3c2CN(c2cccc4cccc(C)c24)C3)C[C@@H]1CC(F)(F)F` [1-48] were, in that order, 0% and 1%.
Consider `C=CC(=O)N1CCN(c2nc(OC[C@@H]3CCCN3C)nc3c2CN(c2cccc4cccc(C)c24)C3)[C@@H](C)C1` [1-31], for which the “CAF … at 10 micromolar: 10 minutes” value came to 0% and the “CAF … at 10 micromolar: 60 minutes” value is listed as 6%.
The corresponding values for `C=CC(=O)N1CCN(c2nc(OC3CC3)nc3c2CN(C2CCc4ccccc42)C3)C[C@@H]1CC#N` (stereo partly shown) [1-152] are 2% and 19%.
In the case of `C=CC(=O)N1CCN(c2nc(OC[C@@H]3CCCN3C)nc3c2CN(C2CCc4ccccc42)C3)C[C@H]1C#N` (stereo partly shown) [1-145], the “CAF … at 10 micromolar: 10 minutes” value stood at 60% and the “CAF … at 10 micromolar: 60 minutes” value amounted to 74%.
On to `C=CC(=O)N1CCN(c2nc(OC[C@@H]3CCCN3C)nc3c2CN(Cc2cc(O)ccc2C(C)C)C3)C[C@@H]1CC#N` [1-185], for which the “CAF … at 10 micromolar: 10 minutes” value is reported as 96% and the “CAF … at 10 micromolar: 60 minutes” value amounted to 97%.
In the case of `C=CC(=O)N1CCN(c2nc(OC[C@@H]3CCCN3C)nc3c2CN(Cc2cccc(Cl)c2Cl)C3)C[C@@H]1CC#N` [1-81], the “CAF … at 10 micromolar: 10 minutes” value worked out at 96% and the “CAF … at 10 micromolar: 60 minutes” value is 98%.
The corresponding values for `C=CC(=O)N1CCN(c2nc(OC[C@@H]3CCCN3C)nc3c2CN(Cc2cccc4ncccc24)C3)C[C@@H]1CC#N` [1-318] are 1% and 11%.
The corresponding values for `C=CC(=O)N1CCN(c2nc(OC[C@@H]3CCCN3C)nc3c2CN(Cc2c(Cl)ccc(O)c2Cl)C3)C[C@@H]1CC#N` [1-321] are 88% and 90%.
Turning to `C=C(F)C(=O)N1CCN(c2nc(OC[C@@H]3CCCN3C)nc3c2CN(C2CCc4cccc(Cl)c42)C3)C[C@@H]1CC#N` (stereo partly shown) [1-153], the “CAF … at 10 micromolar: 10 minutes” value is 46% and the “CAF … at 10 micromolar: 60 minutes” value was determined as 78%.
As for `C=CC(=O)N1CCN(c2nc(OC[C@@H]3CCCN3C)nc3c2CN(S(=O)(=O)c2cccc4ccccc24)C3)C[C@@H]1CC#N` [1-238], the “CAF … at 10 micromolar: 10 minutes” value was determined as 73% and the “CAF … at 10 micromolar: 60 minutes” value is recorded as 95%.
As for `C=CC(=O)N1CCN(c2nc(OC[C@@H]3CCCN3C)nc3c2CN(Cc2c(Cl)cccc2Cl)C3)C[C@@H]1CC#N` [1-44], the “CAF … at 10 micromolar: 10 minutes” value was 98% and the “CAF … at 10 micromolar: 60 minutes” value is recorded as 100%.
Take `C=CC(=O)N1CCN(c2nc(OC[C@@H]3CCCN3C)nc3c2CN(Cc2cc(O)ccc2Cl)C3)[C@@H](C)C1` [1-43]: the “CAF … at 10 micromolar: 10 minutes” value is on record as 97% and the “CAF … at 10 micromolar: 60 minutes” value turned out to be 98%.
The corresponding values for `C=CC(=O)N1CCN(c2nc(OC[C@@H]3CCCN3C)nc3c2CN(Cc2c(C)cccc2C)C3)C[C@@H]1CC#N` [1-29] are 98% and 99%.
Turning to `C=CC(=O)N1CCN(c2nc(OC[C@@H]3CCCN3C)nc3c2CN(Cc2cc(Cl)ccc2F)C3)[C@@H](C)C1` [1-33], the “CAF … at 10 micromolar: 10 minutes” value is recorded as 0% and the “CAF … at 10 micromolar: 60 minutes” value is recorded as 5%.
The corresponding values for `C=CC(=O)N1CCN(c2nc(OCC3CC3)nc3c2CN(C2CCc4ccccc42)C3)C[C@@H]1CC#N` (stereo partly shown) [1-142] are 7% and 36%.
Regarding `C=CC(=O)N1CCN(c2nc(OC[C@@H]3CCCN3CC)nc3c2CN(C2CCc4ccccc42)C3)C[C@@H]1CC#N` (stereo partly shown) [1-175], the “CAF … at 10 micromolar: 10 minutes” value stood at 60% and the “CAF … at 10 micromolar: 60 minutes” value stood at 82%.
The corresponding values for `C=CC(=O)N1CC2CC(=O)CC1CN2c1nc(OC)nc2c1CN(C1CCc3ccccc31)C2` (stereo not shown) [1-250] are 0%/ 0% and 0%/ 0%.
Regarding `C=CC(=O)N1CCN(c2nc(OC[C@@H]3CCCN3C)nc3c2CN(Cc2ccccc2C(C)(C)C)C3)C[C@@H]1CC#N` [1-187], the “CAF … at 10 micromolar: 10 minutes” value stood at 94% and the “CAF … at 10 micromolar: 60 minutes” value turned out to be 95%.
The like results for `C#C[C@H]1CN(C(=O)C=C)CCN1c1nc(OC[C@@H]2CCCN2C)nc2c1CN(C1CCc3ccccc31)C2` (stereo partly drawn) [1-162, 1-[(3S)-4-[6-(2,3-dihydro-1H-inden-1-yl)-2-{[(2S)-1-methylpyrrolidin-2-yl]methoxy}-5H,7H-pyrrolo[3,4-d]pyrimidin-4-yl]-3-ethynylpiperazin-1-yl]prop-2-en-1-one] were, in that order, 2% and 12%.
Regarding `C=CC(=O)N1CC2CC(=O)CC(C1)N2c1nc(OC[C@@H]2CCCN2C)nc2c1CN(C1CCc3ccccc31)C2` (stereo partly shown) [1-251], the “CAF … at 10 micromolar: 10 minutes” value turned out to be 0%/ 0% and the “CAF … at 10 micromolar: 60 minutes” value stood at 0%/ 0%.
With `C=CC(=O)N1CCN(c2nc(OC[C@@H]3CCCN3C)nc3c2CN(Cc2cc(OC)ccc2F)C3)C[C@@H]1CC#N` [1-39], the “CAF … at 10 micromolar: 10 minutes” value was found to be 51% and the “CAF … at 10 micromolar: 60 minutes” value was found to be 72%.
The corresponding values for `C=CC(=O)N1CCN(c2nc(OC[C@@H]3CCCO3)nc3c2CN(Cc2c(F)cccc2OC)C3)C[C@@H]1CC#N` [1-79] are 3% and 23%.
Consider `C=CC(=O)N1CCN(c2nc(OC[C@@H]3CCCN3C)nc3c2CN(C2CCc4ccccc42)C3)C[C@@H]1CNC(C)=O` (stereo partly shown) [1-217], for which the “CAF … at 10 micromolar: 10 minutes” value came out at 0%/ 0% and the “CAF … at 10 micromolar: 60 minutes” value is given as 0%/ 0%.
Turning to `C=CC(=O)N1CCN(c2nc(OC[C@@H]3CC(F)(F)CN3C)nc3c2CN(C2CCc4ccccc42)C3)C[C@@H]1CC#N` (stereo partly shown) [1-133], the “CAF … at 10 micromolar: 10 minutes” value is listed as 84% and the “CAF … at 10 micromolar: 60 minutes” value amounted to 90%.
The like results for `C=CC(=O)N1CCN(c2nc(OCCN3CCOCC3)nc3c2CN(Cc2cc(OC)ccc2C)C3)[C@@H](C)C1` [1-110] were, in that order, 0%/ 0% and 0%/ 0%.
Consider `C=CC(=O)N1CCN(c2nc(OC[C@@H]3CCCN3C)nc3c2CN(Cc2cc(O)c(C)cc2Cl)C3)C[C@@H]1CC#N` [1-323], for which the “CAF … at 10 micromolar: 10 minutes” value was determined as 72% and the “CAF … at 10 micromolar: 60 minutes” value is 93%.
The like results for `C=CC(=O)N1CCN(c2nc(OC[C@@H]3CCCN3C)nc3c2CN(Cc2ncccc2Cl)C3)C[C@@H]1CC#N` [1-113] were, in that order, 59% and 89%.
On to `C=CC(=O)N1CCN(c2nc(OC[C@@H]3CCCN3C)nc3c2CN(C2CCc4ccccc42)C3)C[C@@H]1C(N)=O` (stereo partly drawn) [1-159, (2R)-1-acryloyl-4-(6-(2,3-dihydro-1H-inden-1-yl)-2-(((S)-1-methylpyrrolidin-2-yl)methoxy)-6,7-dihydro-5H-pyrrolo[3,4-d]pyrimidin-4-yl)piperazine-2-carboxamide], for which the “CAF … at 10 micromolar: 10 minutes” value is given as 10% and the “CAF … at 10 micromolar: 60 minutes” value came out at 19%.
The corresponding values for `C=C(F)C(=O)N1CCN(c2nc(OC[C@@H]3CCCN3C)nc3c2CN(Cc2cc(N)ncc2Cl)C3)C[C@@H]1CC#N` [1-332] are 6% and 48%.
The like results for `C=C(F)C(=O)N1CCN(c2nc(OC[C@@H]3CCCN3C)nc3c2CN(Cc2cc(Cl)ccc2C(F)(F)F)C3)C[C@@H]1CC#N` [1-222] were, in that order, 3% and 24%.
The corresponding values for `C=C(F)C(=O)N1CCN(c2nc(OC[C@@H]3CCCN3C)nc3c2CN(C2CCc4ccccc42)C3)C[C@@H]1CC#N` (stereo partly shown) [1-139] are 0% and 5%.

For the origin of these results see US20210292330A1, “PYRROLIDINE-FUSED HETEROCYCLES” (Erasca, Inc., priority 2020, published 2021).
